Where “and” joins values, the source holds several entries; their conditions need not be identical. Equal values may be shown once. Toxic doses and inconclusive results are not listed.
System: P388 leukemia ip, CD2F1 mice, survival T/C
Test: NCI In Vivo Anticancer Drug Screen. Data for tumor model P388 Leukemia (intraperitoneal) in CD2F1 (CDF1) mice
Conditions: endpoint: median survival time, higher = longer survival
Procedure, shortened: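 Mice carrying the transplanted tumor received test compound or vehicle. Survival was recorded in each group, and the value is the treated-group measurement divided by that of the vehicle-treated control group.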

[1] = dose: 12.5 mg/kg/injection, schedule: Q01DX009 (ip), vehicle: saline with Tween-80
[2] = dose: 25.0 mg/kg/injection, schedule: Q01DX009 (ip), vehicle: saline with Tween-80
[3] = dose: 50.0 mg/kg/injection, schedule: Q01DX005 (ip), vehicle: distilled water + alcohol
[4] = dose: 100.0 mg/kg/injection, schedule: Q01DX005 (ip), vehicle: distilled water + alcohol
[5] = dose: 200.0 mg/kg/injection, schedule: Q01DX005 (ip), vehicle: distilled water + alcohol
[6] = dose: 50.0 mg/kg/injection, schedule: Q01DX009 (ip), vehicle: saline with Tween-80
[7] = dose: 100.0 mg/kg/injection, schedule: Q01DX009 (ip), vehicle: saline with Tween-80
[8] = dose: 50.0 mg/kg/injection, schedule: Q01DX005 (ip), vehicle: saline
[9] = dose: 100.0 mg/kg/injection, schedule: Q01DX005 (ip), vehicle: saline
[10] = dose: 200.0 mg/kg/injection, schedule: Q01DX005 (ip), vehicle: saline
[11] = dose: 200.0 mg/kg/injection, schedule: Q01DX009 (ip), vehicle: saline with Tween-80
[12] = dose: 50.0 mg/kg/injection, schedule: Q01DX005 (ip), vehicle: saline with Tween-80
[13] = dose: 100.0 mg/kg/injection, schedule: Q01DX005 (ip), vehicle: saline with Tween-80
[14] = dose: 200.0 mg/kg/injection, schedule: Q01DX005 (ip), vehicle: saline with Tween-80
[15] = dose: 50.0 mg/kg/injection, schedule: Q01DX009 (ip), vehicle: Klucel (hydroxypropylcellulose) (HPC)
[16] = dose: 100.0 mg/kg/injection, schedule: Q01DX009 (ip), vehicle: Klucel (hydroxypropylcellulose) (HPC)
[17] = dose: 200.0 mg/kg/injection, schedule: Q01DX009 (ip), vehicle: Klucel (hydroxypropylcellulose) (HPC)

Structure (SMILES): CC(C)CCC1=CC(=O)C(CCC(C)C)=CC1=O
- T/C (dose: 3.12 mg/kg/injection, schedule: Q01DX009 (ip), vehicle: saline with Tween-80): 104 % of control
- T/C (dose: 6.25 mg/kg/injection, schedule: Q01DX009 (ip), vehicle: saline with Tween-80): 104 % of control
- T/C [1]: 106 % of control
- T/C [2]: 101 % of control

Structure (SMILES): COc1ccc(C(c2cc(C(C)(C)C)cc(C(C)(C)C)c2O)N(C)C)cc1 (configuration not stated)
- T/C [3]: 103 % of control
- T/C [4]: 103 % of control
- T/C [5]: 105 % of control

Structure (SMILES): COc1ccc(Nc2c3ccccc3nc3ccccc23)cc1
- T/C [1]: 111 % of control
- T/C [6]: 151 % of control
- T/C [7]: 109 % of control

Structure (SMILES): N#CC(C(=O)O)c1ccc([N+](=O)[O-])cc1 (configuration not stated)
- T/C (dose: 50.0 mg/kg/injection, schedule: Q01DX005 (ip), vehicle: Klucel (hydroxypropylcellulose) (HPC)): 105 % of control
- T/C (dose: 100.0 mg/kg/injection, schedule: Q01DX005 (ip), vehicle: Klucel (hydroxypropylcellulose) (HPC)): 96 % of control
- T/C (dose: 200.0 mg/kg/injection, schedule: Q01DX005 (ip), vehicle: Klucel (hydroxypropylcellulose) (HPC)): 99 % of control

Structure (SMILES): COC1C(/C=[N+](\C)[O-])OC2OC(C)(C)OC21 (configuration not stated)
- T/C [8]: 102 % of control
- T/C [9]: 100 % of control
- T/C [10]: 93 % of control

Structure (SMILES): C=CCN(CC=C)c1cc(Cl)nnc1Cl
- T/C (dose: 25.0 mg/kg/injection, schedule: Q01DX009 (ip), vehicle: other): 104 % of control
- T/C (dose: 50.0 mg/kg/injection, schedule: Q01DX009 (ip), vehicle: other): 102 % of control
- T/C (dose: 100.0 mg/kg/injection, schedule: Q01DX009 (ip), vehicle: other): 103 % of control
- T/C (dose: 200.0 mg/kg/injection, schedule: Q01DX009 (ip), vehicle: other): 109 % of control

Structure (SMILES): C=CCn1c(-c2ccccc2Cl)n[nH]c1=S
- T/C [6]: 102 % of control
- T/C [7]: 95 % of control
- T/C [11]: 99 % of control

Structure (SMILES): O=C1CCCC2CCC(=O)C12 (configuration not stated)
- T/C (dose: 100.0 mg/kg/injection, schedule: Q04DX003 (ip), vehicle: other): 114 % of control
- T/C (dose: 200.0 mg/kg/injection, schedule: Q04DX003 (ip), vehicle: other): 97 % of control
- T/C (dose: 400.0 mg/kg/injection, schedule: Q04DX003 (ip), vehicle: other): 106 % of control

Structure (SMILES): O=C(Nc1ccc(Sc2ccc(N=Nc3c(O)c(S(=O)(=O)O)cc4cc(S(=O)(=O)O)ccc34)cc2)cc1)c1ccc(N=Nc2c(O)c(S(=O)(=O)O)cc3cc(S(=O)(=O)O)ccc23)cc1
- T/C [12]: 98 % of control
- T/C [13]: 104 % of control
- T/C [14]: 104 % of control

Structure (SMILES): O=C(CCS(=O)(=O)CCC(=O)C(c1ccccc1)c1ccccc1)C(c1ccccc1)c1ccccc1
- T/C (dose: 100.0 mg/kg/injection, schedule: Q04DX003 (ip), vehicle: saline): 97 % of control
- T/C (dose: 200.0 mg/kg/injection, schedule: Q04DX003 (ip), vehicle: saline): 94 % of control
- T/C (dose: 400.0 mg/kg/injection, schedule: Q04DX003 (ip), vehicle: saline): 90 % of control

Structure (SMILES): CCOC(=O)C(Br)CN1C(=O)c2ccccc2C1=O (configuration not stated)
- T/C (dose: 60.0 mg/kg/injection, schedule: Q01DX005 (ip), vehicle: saline with Tween-80): 97 % of control
- T/C (dose: 120.0 mg/kg/injection, schedule: Q01DX005 (ip), vehicle: saline with Tween-80): 115 % of control

Structure (SMILES): CCCCCCCCCCNC1CC(OC2CC(O)(C(C)=O)Cc3c(O)c4c(c(O)c32)C(=O)c2c(OC)cccc2C4=O)OC(C)C1O (configuration not stated)
- T/C (dose: 4.7 mg/kg/injection, schedule: Q04DX003 (ip), vehicle: water): 101 % of control
- T/C (dose: 9.4 mg/kg/injection, schedule: Q04DX003 (ip), vehicle: water): 97 % of control
- T/C (dose: 18.8 mg/kg/injection, schedule: Q04DX003 (ip), vehicle: water): 106 % of control
- T/C (dose: 37.5 mg/kg/injection, schedule: Q04DX003 (ip), vehicle: water): 92 % of control

Structure (SMILES): CS(=O)(=O)OCCN(CCOS(C)(=O)=O)c1ccc(C(=O)O)cc1
- T/C [2]: 159 % of control
- T/C [6]: 168 % of control and 190 % of control
- T/C [7]: 175 % of control
- T/C (dose: 132.0 mg/kg/injection, schedule: Q04DX003 (ip), vehicle: saline with Tween-80): 159 % of control

Structure (SMILES): N=C(N)C(Cl)(Cl)Cl
- T/C [1]: 108 % of control
- T/C [2]: 106 % of control
- T/C [6]: 101 % of control and 106 % of control

Structure (SMILES): COC1CCC(/C=C(\C#N)C2CCC(OC)CC2)CC1 (configuration not stated)
- T/C (dose: 25.0 mg/kg/injection, schedule: Q01DX009 (ip), vehicle: Klucel (hydroxypropylcellulose) (HPC)): 107 % of control
- T/C [15]: 100 % of control
- T/C [16]: 96 % of control
- T/C [17]: 92 % of control

Structure (SMILES): C[CH2][Ge]([CH2]C)[CH2]C.C[CH2][Ge]([Cl])[CH2]C
- T/C (dose: 50.0 mg/kg/injection, schedule: Q01DX009 (ip), vehicle: saline): 100 % of control
- T/C (dose: 100.0 mg/kg/injection, schedule: Q01DX009 (ip), vehicle: saline): 100 % of control
- T/C (dose: 200.0 mg/kg/injection, schedule: Q01DX009 (ip), vehicle: saline): 91 % of control

Structure (SMILES): CCCCCC(CN(C)C)C(=O)/C=C/c1ccc(OC)cc1 (configuration not stated)
- T/C [8]: 101 % of control
- T/C [9]: 104 % of control
- T/C [10]: 96 % of control

Structure (SMILES): CCCCOCN(CCc1ccccc1)COCCCC
- T/C [6]: 118 % of control
- T/C [11]: 152 % of control

Structure (SMILES): CCOC(=O)C12CCCCC1OC(=N)C2 (configuration not stated)
- T/C (dose: 60.0 mg/kg/injection, schedule: Q01DX005 (ip), vehicle: Klucel + Tween-80): 101 % of control
- T/C (dose: 120.0 mg/kg/injection, schedule: Q01DX005 (ip), vehicle: Klucel + Tween-80): 98 % of control
- T/C (dose: 240.0 mg/kg/injection, schedule: Q01DX005 (ip), vehicle: Klucel + Tween-80): 99 % of control

Structure (SMILES): Cn1c(=O)c2c(ncn2CCN2CCNCC2)n(C)c1=O
- T/C [3]: 102 % of control
- T/C [4]: 100 % of control
- T/C [5]: 100 % of control

Structure (SMILES): CN(C)/N=C/c1ccc(O)cc1
- T/C [15]: 118 % of control
- T/C [16]: 100 % of control and 101 % of control
- T/C [17]: 102 % of control and 114 % of control

Structure (SMILES): O=C(O)C(=O)O.O=C(O)C(=O)O.O=C(O)C(=O)O.[Rh]
- T/C (dose: 200.0 mg/kg/injection, schedule: Q04DX003 (ip), vehicle: water): 95 % of control

Structure (SMILES): c1ccc(CNc2ccnc3c2ccc2ccccc23)cc1
- T/C (dose: 100.0 mg/kg/injection, schedule: Q01DX001 (ip), vehicle: Klucel (hydroxypropylcellulose) (HPC)): 100 % of control
- T/C (dose: 200.0 mg/kg/injection, schedule: Q01DX001 (ip), vehicle: Klucel (hydroxypropylcellulose) (HPC)): 97 % of control
- T/C (dose: 400.0 mg/kg/injection, schedule: Q01DX001 (ip), vehicle: Klucel (hydroxypropylcellulose) (HPC)): 100 % of control

Structure (SMILES): COc1c2c(cc3c1-c1ccc(OC)c(=O)cc1C(NC(C)=O)CC3)OCO2 (configuration not stated)
- T/C (dose: 0.47 mg/kg/injection, schedule: Q01DX009 (ip), vehicle: distilled water + Tween-80): 157 % of control
- T/C (dose: 0.94 mg/kg/injection, schedule: Q01DX009 (ip), vehicle: distilled water + Tween-80): 166 % of control
- T/C (dose: 3.75 mg/kg/injection, schedule: Q01DX009 (ip), vehicle: distilled water + Tween-80): 155 % of control
- T/C (dose: 7.5 mg/kg/injection, schedule: Q01DX009 (ip), vehicle: distilled water + Tween-80): 161 % of control

Structure (SMILES): NC(Cc1ccc(O)cc1)C(=O)N/N=C/c1ccccc1O (configuration not stated)
- T/C [12]: 92 % of control
- T/C [13]: 90 % of control
- T/C [14]: 113 % of control
